Measurements reported in publication PMC9008429, “Identification of a New Cholesterol‐Binding Site within the IFN‐γ Receptor that is Required for Signal Transduction” (Advanced Science, 2022).
Numbering of substitutions follows the chain as printed.

Experiments:
IFN-γR2 [1] = target: T1, IFN-γR2 (Homo sapiens, UniProt P38484); test: competition of photoaffinity labelling in living cells, anti-GFP IP, autoradiography; assay type: cell-based; details: competes with [3H]-photo-chol, dose-dependent; curve only in supplement
T1 construct: gene IFNGR2; full-length, C-terminal GFP fusion (peGFP-N1); transiently expressed in CHO (with IFN-γR1-RLuc) or HAP1 IFN-γR2 KO cells; in the functional receptor two R1 and two R2 chains
T1 sequence (P38484 22-337): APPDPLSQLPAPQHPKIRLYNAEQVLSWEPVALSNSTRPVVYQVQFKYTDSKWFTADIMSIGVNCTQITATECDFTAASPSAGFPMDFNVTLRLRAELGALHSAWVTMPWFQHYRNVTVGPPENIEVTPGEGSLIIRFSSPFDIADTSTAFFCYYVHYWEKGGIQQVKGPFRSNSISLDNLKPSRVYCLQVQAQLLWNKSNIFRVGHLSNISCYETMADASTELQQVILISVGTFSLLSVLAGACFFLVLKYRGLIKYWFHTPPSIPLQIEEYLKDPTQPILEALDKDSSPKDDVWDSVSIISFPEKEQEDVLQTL

IFN-γR2 [2] = target: T2, IFN-γR2 (Homo sapiens, UniProt P38484, L250T/I251T/G254F); test: in vivo photoaffinity labelling, UV cross-link, anti-GFP IP, autoradiography; assay type: cell-based; details: 3 µM probe, 6 h; full-length GFP fusion, CHO and HAP1 IFN-γR2 KO cells; covalent; labelled compound; with or without IFN-γ
T2 construct: gene IFNGR2; full-length, C-terminal GFP fusion (peGFP-N1); transiently expressed in CHO (with IFN-γR1-RLuc) or HAP1 IFN-γR2 KO cells
T2 sequence (P38484 22-337 L250T/I251T/G254F): T1 sequence (P38484 22-337) with L229T, I230T, G233F

Molecule | competition of photoaffinity labelling in living cells, anti-GFP IP, autoradiogr (IFN-γR2 [1]) | % reduction of chol binding vs wild type (IFN-γR2 [2]) [%]
CC(C)CCC[C@@H](C)[C@H]1CC[C@H]2[C@@H]3CC=C4C[C@@H](O)CC[C@]4(C)[C@H]3CC[C@]12C [chol] | cross‐linking between [^3H]‐photo‐chol and IFN‐γR2 was competed in a dose‐dependent manner | 
[3H]-photo-chol |  | > 50
